# From patent US20170290871A1, “METHOD OF TREATING HYPERTENSION” (KING SAUD UNIVERSITY, priority 2016, published 2017)
# Experiments:
# Assay type in all cases: in vivo, Sprague-Dawley rats
# [1] = tested on: hypertension induced rats; assay: Serum marker enzymes (AST, ALT, ALP) of hypertension induced rats
# Procedure: (§1) Male Sprague-Dawley rats were divided into nine groups of six rats each and treated daily for three consecutive weeks. High salt-sucrose solution was given to the rats to induce hypertension in them. […] At the end of the experimental period, arterial blood pressure and heart rate of all rats were recorded. The rats were sacrificed by decapitation and the free running blood was collected for analysis. The systolic blood pressure (SBP), the diastolic blood pressure (DBP) and the heart rate (HR) of the rats were measured by the tail cuff every day during the entire period of study in control, drug and extract treated animals. For the estimation of alanine transaminase (ALT), aspartate transaminase (AST), alkaline phosphatase (ALP), total cholesterol, triglycerides, low-density lipoprotein (LDL) and high density lipoprotein (HDL), blood samples were collected in clot activator gel tubes. The serum was separated by centrifuging the blood samples at 5000 rpm for 10 minutes. Serum biochemical parameters were then measured by using commercially available reagent kits.
# [2] = tested on: hypertension induced rats; assay: GSH and SOD in tissue homogenates (liver, heart, kidney) of hypertension induced rats
# Procedure: Male Sprague-Dawley rats were divided into nine groups of six rats each and treated daily for three consecutive weeks. High salt-sucrose solution was given to the rats to induce hypertension in them. […] At the end of the experimental period, arterial blood pressure and heart rate of all rats were recorded. The rats were sacrificed by decapitation and the free running blood was collected for analysis. The systolic blood pressure (SBP), the diastolic blood pressure (DBP) and the heart rate (HR) of the rats were measured by the tail cuff every day during the entire period of study in control, drug and extract treated animals. After collecting the blood samples from the rats, their abdominal cavity was opened; heart, liver and kidney were dissected out and homogenized in Tris-HCl buffer solution to make a 20% homogenate. Glutathione (GSH) and superoxide dismutase (SOD) were determined using the method described by Ellman & Misra for assessing the oxidative damage parameters in some organs.
# [3] = tested on: hypertension induced rats; assay: Blood pressure and heart rate of salt-sucrose hypertension induced rats; details: captopril 20 mg/kg daily for three weeks, mean ± SD of 6
# Procedure: Male Sprague-Dawley rats were divided into nine groups of six rats each and treated daily for three consecutive weeks. High salt-sucrose solution was given to the rats to induce hypertension in them. […] At the end of the experimental period, arterial blood pressure and heart rate of all rats were recorded. The rats were sacrificed by decapitation and the free running blood was collected for analysis. The systolic blood pressure (SBP), the diastolic blood pressure (DBP) and the heart rate (HR) of the rats were measured by the tail cuff every day during the entire period of study in control, drug and extract treated animals.
# [4] = tested on: hypertension induced rats; assay: Plasma lipid profile of hypertension induced rats; details: captopril 20 mg/kg daily for three weeks, mean ± SD of 6
# Procedure: as §1
# [5] = serum, captopril 20 mg/kg daily for three weeks, mean ± SD of 6
# [6] = heart homogenate, captopril 20 mg/kg, mean ± SD of 6
# [7] = kidney homogenate, captopril 20 mg/kg, mean ± SD of 6
# [8] = liver homogenate, captopril 20 mg/kg, mean ± SD of 6
smiles,measurement,setting,value
"C[C@H](CS)C(=O)N1CCC[C@H]1C(=O)O [Captopril, captopril]","levels of AST, ALT, ALP and lipid profile, in words",[1],brought back significantly to near normal
same,ALP,[1]; [5],132.12 ± 17.41a* IU/L
same,ALT,[1]; [5],85.44 ± 10.33a* IU/L
same,AST,[1]; [5],45.03 ± 5.44a* IU/L
same,Heart GSH,[2]; [6],38.78 ± 4.69a^ mM/L
same,Heart SOD,[2]; [6],68.92 ± 9.08a^@ U/mg
same,Kidney GSH,[2]; [7],31.04 ± 2.78a^@ mM/L
same,Kidney SOD,[2]; [7],67.96 ± 6.08a^@ U/mg
same,Liver GSH,[2]; [8],28.92 ± 4.12a^ mM/L
same,Liver SOD,[2]; [8],42.67 ± 5.62a^ U/mg
same,"levels of enzymic antioxidants, in words",[2]; tissue homogenates,retained to near normal values significantly
same,Diastolic BP,[3],95.56 ± 10.5a* mm Hg
same,Heart rate,[3],328.86 ± 36.14a* beats/min
same,Systolic BP,[3],121.45 ± 10.9a* mm Hg
same,CHOLESTEROL,[4],135.42 ± 13.41a* mg/dL
same,HDL,[4],41.46 ± 4.55a* mg/dL
same,LDL,[4],89.23 ± 9.8a* mg/dL
same,TRIGLYCERIDES,[4],106.41 ± 9.52a* mg/dL
